Where two headings read alike, the source gives them in different places.
Columns and labels:
[1] = Phase one study part 2: multiple dose (28 days) plasma PK of free and total DGLA; type: in vivo, human; details: for Tmax / half-life: human, plasma, oral; for half-life: read-out: t1/2, median, free DGLA, baseline-corrected plasma (converted); for free DGLA Peak Trough Fluctuation (PTF), mean: steady state Day 28 (0-24 hours)
Procedure: Multiple dose part two of the study comprised two cohorts (Cohorts five and six) of eight subjects each, who were administered multiple doses of study drug in the fasted state for 28 days. Subjects in Cohorts five and six received DS107G at 2000 or 4000 mg, respectively, or matching placebo once daily for 28 days. Cohort six was started after Cohort five's safety data were evaluated by the SMC. No interim analysis was planned. […]
In Part two of the study (Cohorts five and six), subjects were administered study drug (500-mg DS107G capsules or matching placebo capsules) once daily in the fasted state for 28 days. Subjects in Cohort five received study drug first and, if they tolerated the 2000-mg daily dose for the first 14 days, subjects in Cohort six were started on the 4000-mg daily dose for 28 days.
PK parameter was computed after correcting the dosed DGLA concentrations with baseline DGLA concentrations.

[2] = Phase one study part 2: free and total DGLA in skin blister fluid; type: in vivo, human
Excerpt: The PK of DGLA in human skin following multiple doses of DS107G capsule given once daily for 28 days to healthy subjects.

[3] = Phase one study: safety and tolerability (TEAEs, vital signs, ECG); details: for tolerability: healthy volunteers
Procedure: Screening procedures were conducted for both parts one and two before the start of the study on Day −1 (Baseline) by evaluating the safety assessments.
Subjects were monitored throughout their confinement at the Phase 1 unit for adverse reactions to the study drug and/or procedures.
Safety analyses were performed on the safety population tabulated by treatment arm, cohort, and visit. All safety data were characterized by descriptive statistical tools. […] Evaluation of safety assessments was performed in a descriptive manner. Continuous variables were characterized by their mean, standard deviation (SD), median, minimum and maximum values; discrete variables were characterized by their absolute (frequency) and relative (percentage) distribution.

[4] = 4000 mg once daily, Day 28, 0 to 24 hours
[5] = 4000 mg once daily, Day 28, 0 to 168 hours
[6] = 4000 mg once daily, Day 28: 0 to 24 hours

For `CCCCC/C=C\C/C=C\C/C=C\CCCCCCC(=O)O` [DS107G, Dihomo gamma linolenic acid], the “Cmax, mean, free DGLA, baseline-corrected plasma” value [1, 4] was 2.8732 µg/mL, the “Cmax/Dose, mean, free DGLA, baseline-corrected plasma” value [1, 4] was 0.718 kL⁻¹ and the “Cmax/Dose, mean, total DGLA, baseline-corrected plasma” value [1, 4] was 22.717 kL⁻¹. The “λz, mean, free DGLA, baseline-corrected plasma” value [1, 4] was 0.0596 h⁻¹, the “λz, mean, total DGLA, baseline-corrected plasma” value [1, 4] was 0.0471 h⁻¹ and the “AUC0-24, mean, free DGLA, baseline-corrected plasma” value [1, 5] was 16.1552 µg·h/mL. For the same molecule, the “AUC0-24/Dose, mean, free DGLA, baseline-corrected plasma” value [1, 5] was 4.04 h/kL, the “AUC0-24/Dose, mean, total DGLA, baseline-corrected plasma” value [1, 5] was 465.14 h/kL and the “AUC0-inf, mean, free DGLA, baseline-corrected plasma” value [1, 5] was 43.1843 µg·h/mL. The “AUC0-inf/Dose, mean, free DGLA, baseline-corrected plasma” value [1, 5] was 10.80 h/kL, the “AUC0-inf/Dose, mean, total DGLA, baseline-corrected plasma” value [1, 5] was 1575.98 h/kL and the “CL/F, mean, free DGLA, baseline-corrected plasma” value [1, 5] was 0.1266 kL/h. For the same molecule, the “Cmax, mean, free DGLA, baseline-corrected plasma” value [1, 5] was 2.8732 µg/mL, the “Cmax/Dose, mean, free DGLA, baseline-corrected plasma” value [1, 5] was 0.718 kL⁻¹ and the “Cmax/Dose, mean, total DGLA, baseline-corrected plasma” value [1, 5] was 22.717 kL⁻¹. The “λz, mean, free DGLA, baseline-corrected plasma” value [1, 5] was 0.0404 h⁻¹, the “λz, mean, total DGLA, baseline-corrected plasma” value [1, 5] was 0.0194 h⁻¹ and the “% PTF (peak trough fluctuation), mean, free DGLA, steady-state baseline-corrected plasma” value [1, 6] was 431.97%. The “% PTF (peak trough fluctuation), mean, total DGLA, steady-state baseline-corrected plasma” value [1, 6] was 44.90%, the “AR(AUC) accumulation ratio, mean, free DGLA, steady-state baseline-corrected plasma” value [1, 6] was 1.561 and the “AR(AUC) accumulation ratio, mean, total DGLA, steady-state baseline-corrected plasma” value [1, 6] was 4.163. The “AR(Cmax) accumulation ratio, mean, free DGLA, steady-state baseline-corrected plasma” value [1, 6] was 1.385, the “AR(Cmax) accumulation ratio, mean, total DGLA, steady-state baseline-corrected plasma” value [1, 6] was 3.440 and the “CLss/F, mean, free DGLA, steady-state baseline-corrected plasma” value [1, 6] was 0.2858 kL/h. For the same molecule, the “CLss/F, mean, total DGLA, steady-state baseline-corrected plasma” value [1, 6] was 0.0025 kL/h, the “Cavg, mean, free DGLA, steady-state baseline-corrected plasma” value [1, 6] was 0.6731 µg/mL and the “Cavg, mean, total DGLA, steady-state baseline-corrected plasma” value [1, 6] was 77.5239 µg/mL. The “Cmin, mean, free DGLA, steady-state baseline-corrected plasma” value [1, 6] was 0.147 µg/mL, the “Cmin, mean, total DGLA, steady-state baseline-corrected plasma” value [1, 6] was 59.2167 µg/mL and the “Vzss/F, mean, free DGLA, steady-state baseline-corrected plasma” value [1, 6] was 5.7563 kL. The “Vzss/F, mean, total DGLA, steady-state baseline-corrected plasma” value [1, 6] was 0.1047 kL, the “tmin, median, free DGLA, steady-state baseline-corrected plasma” value [1, 6] was 8.00 h and the “tmin, median, total DGLA, steady-state baseline-corrected plasma” value [1, 6] was 2.00 h. The “time to reach steady-state plasma concentrations, free and total DGLA” value ([1]; 2000 and 4000 mg daily) was about 14 days, the “free DGLA mean baseline-corrected AUC0-24, 4000 mg vs 2000 mg dose” value ([1]; Day 1) was about 2.5 fold and the “free DGLA mean baseline-corrected Cmax, 4000 mg vs 2000 mg dose” value ([1]; Day 1) was about 3 fold. The “total DGLA mean baseline-corrected AUC0-24, 4000 mg vs 2000 mg dose” value ([1]; Day 1) was about 1.5 fold, the “total DGLA mean baseline-corrected Cmax, 4000 mg vs 2000 mg dose” value ([1]; Day 1) was about 1.5 fold and the “free DGLA mean baseline-corrected AUC0-24, 4000 mg vs 2000 mg dose” value ([1]; Day 28) was about 1.7 fold. For the same molecule, the “free DGLA mean baseline-corrected Cmax, 4000 mg vs 2000 mg dose” value ([1]; Day 28) was about 1.4 fold, the “total DGLA mean baseline-corrected AUC0-24, 4000 mg vs 2000 mg dose” value ([1]; Day 28) was about 1.4 fold and the “total DGLA mean baseline-corrected Cmax, 4000 mg vs 2000 mg dose” value ([1]; Day 28) was about 1.2 fold. For the same molecule, the “time of peak mean concentration of free DGLA after dosing” value ([1]; Days 1 and 28, 2000 and 4000 mg daily) was “about 4 hours”, the Tmax ([1]; both sexes, both dose cohorts, Day 1 and Day 28, read-out: free DGLA median tmax) was 4 to 5 h and the half-life ([1]; 2000 mg, 2000 mg once daily, Day 1, 0 to 24 hours) was 4.71 h. For the same molecule, the Tmax ([1]; 2000 mg, 2000 mg once daily, Day 1, 0 to 24 hours, read-out: tmax, median, free DGLA, baseline-corrected plasma) was 4 h, the half-life ([1]; 2000 mg, 2000 mg once daily, Day 28, 0 to 24 hours) was 14 h and the Tmax ([1]; 2000 mg, 2000 mg once daily, Day 28, 0 to 24 hours, read-out: tmax, median, free DGLA, baseline-corrected plasma) was 4 h. It also gave a half-life ([1]; 2000 mg, 2000 mg once daily, Day 28, 0 to 168 hours) of 63.6 h, a Tmax ([1]; 2000 mg, 2000 mg once daily, Day 28, 0 to 168 hours, read-out: tmax, median, free DGLA, baseline-corrected plasma) of 4 h and a half-life ([1]; 4000 mg, 4000 mg once daily, Day 1, 0 to 24 hours) of 5.92 h. For the same molecule, the Tmax ([1]; 4000 mg, 4000 mg once daily, Day 1, 0 to 24 hours, read-out: tmax, median, free DGLA, baseline-corrected plasma) was 5 h, the half-life ([1]; 4000 mg, 4000 mg once daily, Day 28, 0 to 24 hours) was 12.7 h and the Tmax ([1]; 4000 mg, 4000 mg once daily, Day 28, 0 to 24 hours, read-out: tmax, median, free DGLA, baseline-corrected plasma) was 4 h. For the same molecule, the half-life ([1]; 4000 mg, 4000 mg once daily, Day 28, 0 to 168 hours) was 48.2 h, the Tmax ([1]; 4000 mg, 4000 mg once daily, Day 28, 0 to 168 hours, read-out: tmax, median, free DGLA, baseline-corrected plasma) was 4 h and the “increase of average concentration at steady state when dose doubled from 2000 to 4000 mg daily, free DGLA” value ([1]; in vivo) was 1.6 fold. For the same molecule, the “increase of average concentration at steady state when dose doubled from 2000 to 4000 mg daily, total DGLA” value ([1]; in vivo) was 1.2 fold, the “free DGLA Peak Trough Fluctuation (PTF), mean” value ([1]; first value of both dose cohorts (2000 mg)) was about 430% and the “free DGLA Peak Trough Fluctuation (PTF), mean” value ([1]; second value of both dose cohorts (4000 mg)) was about 490%. For the same molecule, the “mean free DGLA concentrations in skin blister fluid with a doubling in dose” value ([2]; Days 1, 8, 14 and 28) was “approximately doubled”, the “mean free DGLA concentrations in skin blister fluid, Day 28 vs Day 1” value ([2]; both 2000 and 4000 mg daily) was “about 3 fold” and the “mean concentrations of free DGLA, plasma vs skin blister fluid” value ([2]; same dose, Day 8 and Day 14 (but not Day 28)) was “somewhat similar in plasma and skin blister fluid”. The “mean concentrations of total DGLA, plasma vs skin blister fluid” value ([2]; same dose, after Day 1) was “much higher in plasma than in skin blister fluid”, the tolerability ([3]; 2000- or 4000-mg once daily for 28 consecutive days) was “tolerated well” and the subjects reporting diarrhea ([3]; 2000-mg group, 3/6) was 50%. The subjects reporting diarrhea ([3]; 4000-mg group, 4/6) was 66.7%, the subjects reporting nausea ([3]; 4000-mg treatment group, 4/6, 10 events) was 66.7% and the deaths ([3]; multi-dose study) was “no deaths”. The “severe TEAEs” value ([3]; multiple dose) was “no severe TEAEs”, the “incidence of TEAEs” value ([3]; multiple dose, 11/12 active-treated subjects, total of 52 TEAEs) was 91.73% and the tolerability ([3]; single dose 500, 1000, 2000 or 4000 mg) was “well tolerated”. For the same molecule, the “incidence of diarrhea (loose stool)” value ([3]; single dose, 5/24 active-treated subjects) was 20.8%.

From patent US20180333382A1, “PHARMACEUTICAL COMPOSITIONS COMPRISING DGLA AND USE OF SAME” (DS Biopharma Limited, priority 2017, published 2018)
